Results reported in US9113629B2, “4-amino-6-(4-substituted-phenyl)-picolinates and 6-amino-2-(4-substituted-phenyl)-pyrimidine-4-carboxylates and their use as herbicides” (DOW AGROSCIENCES LLC, priority 2013, dated 2015).

How the values were obtained:
[1] = tested on: MATSS: scented mayweed (Matricaria chamomilla), pineappleweed (Matricaria matricarioides); test: Post-emergent Test III, herbicidal activity in wheat and barley; assay type: in vivo; conditions: for pest or weed control at 35 g/ha / pest or weed control at 70 g/ha / pest or weed control at 140 g/ha: Matricaria chamomilla, post-emergence, 504 h, read-out: Visual Growth Reduction (%) 21 Days After Application MATSS; for pest or weed control at 35 g/ha: 35 g ai/ha; for pest or weed control at 70 g/ha: 70 g ai/ha; for pest or weed control at 140 g/ha: 140 g ai/ha; for GR50 MATSS / GR80 MATSS: probit analysis, 21 days after application; for GR50 MATSS: dose for growth reduction of 50 percent; for GR80 MATSS: dose for growth reduction of 80 percent
Outline: (§1)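 Plants at the second to third true-leaf stage, grown in a greenhouse at about 18/17 °C with a 14 h photoperiod, were sprayed post-emergence at 187 L/ha with the high rate and ½× to 1/16× serial dilutions in an acetone/DMSO/crop-oil/surfactant carrier. Injury was rated visually at 21 d on a 0–100% scale, and GR20–GR90 were derived by probit analysis.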

[2] = tested on: KCHSC: kochia (Kochia scoparia); test: as above; assay type: in vivo; conditions: for pest or weed control at 35 g/ha / pest or weed control at 70 g/ha / pest or weed control at 140 g/ha: Bassia scoparia, post-emergence, 504 h, read-out: Visual Growth Reduction (%) 21 Days After Application KCHSC; for pest or weed control at 35 g/ha: 35 g ai/ha; for pest or weed control at 70 g/ha: 70 g ai/ha; for pest or weed control at 140 g/ha: 140 g ai/ha; for GR50 KCHSC / GR80 KCHSC: probit analysis, 21 days after application; for GR50 KCHSC: dose for growth reduction of 50 percent; for GR80 KCHSC: dose for growth reduction of 80 percent
Outline: as §1

[3] = as above; assay type: in vivo, Lolium multiflorum, Lolium rigidum; conditions: Lolium multiflorum, post-emergence, 504 h, read-out: Visual Growth Reduction (%) 21 Days After Application LOLSS; for pest or weed control at 35 g/ha: 35 g ai/ha; for pest or weed control at 70 g/ha: 70 g ai/ha; for pest or weed control at 140 g/ha: 140 g ai/ha
Outline: as §1

[4] = tested on: LOLSS: ryegrass including, Italian ryegrass (Lolium multiflorum), rigid ryegrass (Lolium rigidum), annual ryegrass (Lolium multiflorum subsp. Gaudini); test: as above; assay type: in vivo; conditions: probit analysis, 21 days after application; for GR50 LOLSS: dose for growth reduction of 50 percent; for GR80 LOLSS: dose for growth reduction of 80 percent
Outline: as §1

LAMSS = test: as above; assay type: in vivo; conditions: for pest or weed control at 35 g/ha / pest or weed control at 70 g/ha / pest or weed control at 140 g/ha: post-emergence, 504 h, read-out: Visual Growth Reduction (%) 21 Days After Application LAMSS; for pest or weed control at 35 g/ha: 35 g ai/ha; for pest or weed control at 70 g/ha: 70 g ai/ha; for pest or weed control at 140 g/ha: 140 g ai/ha; for GR50 LAMSS / GR80 LAMSS: probit analysis, 21 days after application; for GR50 LAMSS: dose for growth reduction of 50 percent; for GR80 LAMSS: dose for growth reduction of 80 percent
Outline: as §1

[5] = tested on: VERPE: bird's-eye speedwell (veronica persica); test: as above; assay type: in vivo; conditions: for pest or weed control at 35 g/ha / pest or weed control at 70 g/ha / pest or weed control at 140 g/ha: Veronica persica, post-emergence, 504 h, read-out: Visual Growth Reduction (%) 21 Days After Application VERPE; for pest or weed control at 35 g/ha: 35 g ai/ha; for pest or weed control at 70 g/ha: 70 g ai/ha; for pest or weed control at 140 g/ha: 140 g ai/ha; for GR50 VERPE / GR80 VERPE: probit analysis, 21 days after application; for GR50 VERPE: dose for growth reduction of 50 percent; for GR80 VERPE: dose for growth reduction of 80 percent
Outline: as §1

[6] = tested on: TRZSS: wheat, including spring and winter (Triticum aestivum); test: as above; assay type: in vivo; conditions: for pest or weed control at 35 g/ha / pest or weed control at 70 g/ha / pest or weed control at 140 g/ha: Triticum aestivum, post-emergence, 504 h, read-out: Visual Growth Reduction (%) 21 Days After Application TRZSS; for pest or weed control at 35 g/ha: 35 g ai/ha; for pest or weed control at 70 g/ha: 70 g ai/ha; for pest or weed control at 140 g/ha: 140 g ai/ha; for GR20 TRZSS: probit analysis, dose for growth reduction of 20 percent, 21 days after application, crop
Outline: as §1

[7] = tested on: HORSS: barley, including spring and winter (Hordeum vulgare); test: as above; assay type: in vivo; conditions: for pest or weed control at 35 g/ha / pest or weed control at 70 g/ha / pest or weed control at 140 g/ha: Hordeum vulgare, post-emergence, 504 h, read-out: Visual Growth Reduction (%) 21 Days After Application HORSS; for pest or weed control at 35 g/ha: 35 g ai/ha; for pest or weed control at 70 g/ha: 70 g ai/ha; for pest or weed control at 140 g/ha: 140 g ai/ha; for GR20 HORSS: probit analysis, dose for growth reduction of 20 percent, 21 days after application, crop
Outline: as §1

[8] = tested on: SETVI: green foxtail (Setaria viridis); test: as above; assay type: in vivo; conditions: for pest or weed control at 35 g/ha / pest or weed control at 70 g/ha / pest or weed control at 140 g/ha: Setaria viridis, post-emergence, 504 h, read-out: Visual Growth Reduction (%) 21 Days After Application SETVI; for pest or weed control at 35 g/ha: 35 g ai/ha; for pest or weed control at 70 g/ha: 70 g ai/ha; for pest or weed control at 140 g/ha: 140 g ai/ha; for GR50 SETVI / GR80 SETVI: probit analysis, 21 days after application; for GR50 SETVI: dose for growth reduction of 50 percent; for GR80 SETVI: dose for growth reduction of 80 percent
Outline: as §1

SMILES	pest or weed control at 35 g/ha [1] [%]	pest or weed control at 70 g/ha [1] [%]	pest or weed control at 140 g/ha [1] [%]	GR50 MATSS [1] [g ai/ha]	GR80 MATSS [1] [g ai/ha]	pest or weed control at 35 g/ha [2] [%]	pest or weed control at 70 g/ha [2] [%]	pest or weed control at 140 g/ha [2] [%]	GR50 KCHSC [2] [g ai/ha]	GR80 KCHSC [2] [g ai/ha]	pest or weed control at 35 g/ha [3] [%]	pest or weed control at 70 g/ha [3] [%]	pest or weed control at 140 g/ha [3] [%]	GR50 LOLSS [4] [g ai/ha]	GR80 LOLSS [4] [g ai/ha]	pest or weed control at 35 g/ha (LAMSS) [%]	pest or weed control at 70 g/ha (LAMSS) [%]	pest or weed control at 140 g/ha (LAMSS) [%]	GR50 LAMSS (LAMSS) [g ai/ha]	GR80 LAMSS (LAMSS) [g ai/ha]	other results
Nc1c(F)c(-c2ccc(Cl)c(F)c2)nc(C(=O)O)c1Cl [Compound 217]	85 to 94	85 to 94	85 to 94	34	>140	85 to 94	95 to 100	95 to 100	2	6	45 to 59	60 to 74	60 to 74	32	>140	95 to 100	95 to 100	95 to 100	1	2	pest or weed control at 35 g/ha [5]: 60 to 74%; pest or weed control at 70 g/ha [5]: 60 to 74%; pest or weed control at 140 g/ha [5]: 60 to 74%; GR50 VERPE [5]: 19 g ai/ha; GR80 VERPE [5]: 73 g ai/ha; pest or weed control at 35 g/ha [6]: 75 to 84%; pest or weed control at 70 g/ha [6]: 75 to 84%; pest or weed control at 140 g/ha [6]: 85 to 94%; GR20 TRZSS [6]: 2 g ai/ha; pest or weed control at 35 g/ha [7]: 75 to 84%; pest or weed control at 70 g/ha [7]: 75 to 84%; pest or weed control at 140 g/ha [7]: 75 to 84%; GR20 HORSS [7]: 7 g ai/ha; pest or weed control at 35 g/ha [8]: 75 to 84%; pest or weed control at 70 g/ha [8]: 75 to 84%; pest or weed control at 140 g/ha [8]: 75 to 84%; GR50 SETVI [8]: 46 g ai/ha; GR80 SETVI [8]: >140 g ai/ha
Nc1cc(-c2ccc(Br)c(F)c2F)nc(C(=O)O)c1Cl [Compound 91]	60 to 74	75 to 84	85 to 94	11	75	75 to 84	85 to 94	85 to 94	2	47	0 to 29	0 to 29	0 to 29	>140	>140	95 to 100	95 to 100	95 to 100	1	3	pest or weed control at 35 g/ha [5]: 30 to 44%; pest or weed control at 70 g/ha [5]: 30 to 44%; pest or weed control at 140 g/ha [5]: 45 to 59%; GR50 VERPE [5]: 123 g ai/ha; GR80 VERPE [5]: >140 g ai/ha; pest or weed control at 35 g/ha [6]: 75 to 84%; pest or weed control at 70 g/ha [6]: 85 to 94%; pest or weed control at 140 g/ha [6]: 85 to 94%; GR20 TRZSS [6]: 1 g ai/ha; pest or weed control at 35 g/ha [7]: 75 to 84%; pest or weed control at 70 g/ha [7]: 75 to 84%; pest or weed control at 140 g/ha [7]: 85 to 94%; GR20 HORSS [7]: 1 g ai/ha; pest or weed control at 35 g/ha [8]: 60 to 74%; pest or weed control at 70 g/ha [8]: 75 to 84%; pest or weed control at 140 g/ha [8]: 75 to 84%; GR50 SETVI [8]: 6 g ai/ha; GR80 SETVI [8]: 105 g ai/ha
